In ChEMBL document CHEMBL4732083, “Synthesis and anti-inflammatory activity of saponin derivatives of δ-oleanolic acid” (Eur J Med Chem, 2021):
Blank lines part the entries; values can stand above or below the compound they belong to. Active and inactive are the calls of the source. The calls are words filed in the database; no cut-off is given here.

What was measured:
[1] = molecular target: AMP-activated protein kinase, AMPK (Homo sapiens) (UniProt P54646+O43741+P54619+Q9UGJ0+Q9Y478+Q13131+Q9UGI9); assay: Activation of AMPK in human Huh-7 cells assessed as increase in AMPK phosphorylation at Thr172 residue at 10 uM measured after 12 hrs by Western blot analysis; assay type: cell-based; conditions: filed as activator
[2] = Metabolic stability in human liver microsomes assessed as intrinsic clearance in presence of NADPH by LC-MS analysis; assay type: ADME, Microsome; conditions: read-out: CLH
[3] = Half life in BALB/c mouse at 2 mg/kg, iv by LC/MS-MS analysis; assay type: ADME, organism-based; conditions: in vivo
[4] = Metabolic stability in mouse liver microsomes assessed as half life in presence of NADPH by LC-MS analysis; assay type: ADME, Microsome
[5] = Tmax in BALB/c mouse at 2 mg/kg, iv by LC/MS-MS analysis; assay type: ADME, organism-based; conditions: in vivo
[6] = AUC (0 to infinity) in BALB/c mouse at 2 mg/kg, iv by LC/MS-MS analysis; assay type: ADME, organism-based; parameters: route intravenous, time infinity, dose 2 mg/kg; conditions: in vivo
[7] = Cmax in BALB/c mouse at 2 mg/kg, iv by LC/MS-MS analysis; assay type: ADME, organism-based; parameters: route intravenous, dose 2 mg/kg; conditions: in vivo
[8] = Half life in BALB/c mouse at 10 mg/kg, po by LC/MS-MS analysis; assay type: ADME, organism-based; conditions: in vivo
[9] = Tmax in BALB/c mouse at 10 mg/kg, po by LC/MS-MS analysis; assay type: ADME, organism-based; conditions: in vivo
[10] = Bioavailability in BALB/c mouse at 10 mg/kg, po by LC/MS-MS analysis; assay type: ADME, organism-based; conditions: in vivo
[11] = Cmax in BALB/c mouse at 10 mg/kg, po by LC/MS-MS analysis; assay type: ADME, organism-based; parameters: route oral, dose 10 mg/kg; conditions: in vivo
[12] = Metabolic stability in mouse liver microsomes assessed as intrinsic clearance in presence of NADPH by LC-MS analysis; assay type: ADME, Microsome; conditions: read-out: CLH
[13] = AUC (0 to t) in BALB/c mouse at 10 mg/kg, po by LC/MS-MS analysis; assay type: ADME, organism-based; parameters: dose 10 mg/kg; conditions: in vivo
[14] = AUC (0 to infinity) in BALB/c mouse at 10 mg/kg, po by LC/MS-MS analysis; assay type: ADME, organism-based; parameters: route oral, time infinity, dose 10 mg/kg; conditions: in vivo
[15] = Metabolic stability in human liver microsomes assessed as half life in presence of NADPH by LC-MS analysis; assay type: ADME, Microsome
[16] = AUC (0 to t) in BALB/c mouse at 2 mg/kg, iv by LC/MS-MS analysis; assay type: ADME, organism-based; parameters: dose 2 mg/kg; conditions: in vivo
THP-1 [17] = assay: Antiinflammatory activity in human THP-1 cells assessed as reduction in LPS-induced TNF alpha secretion at 10 uM incubated for 12 hrs measured by ELISA; assay type: functional, cell-based
THP-1 [18] = assay: Cytotoxicity against human THP-1 cells assessed as reduction in cell viability at 1 to 10 uM; assay type: cell-based; conditions: thp-1, 10 µM
THP-1 [19] = assay: Antiinflammatory activity in human THP-1 cells assessed as reduction in LPS-induced IL6 secretion at 10 uM incubated for 12 hrs measured by ELISA; assay type: functional, cell-based

SMILES: CC1(C)[C@@H](O)CC[C@]2(C)[C@H]3C(=O)C=C4[C@@H]5C[C@@](C)(C(=O)O)CC[C@]5(C)CC[C@@]4(C)[C@]3(C)CC[C@@H]12
Activity [1]: Active

SMILES: C[C@@H]1O[C@@H](O[C@H]2[C@H](O[C@H]3CC[C@@]4(C)[C@@H](CC[C@]5(C)[C@@H]4CC=C4[C@@H]6CC(C)(C)CC[C@]6(C(=O)O[C@@H]6O[C@H](CO[C@@H]7O[C@H](CO)[C@@H](O[C@@H]8O[C@@H](C)[C@H](O)[C@@H](O)[C@H]8O)[C@H](O)[C@H]7O)[C@@H](O)[C@H](O)[C@H]6O)CC[C@]45C)[C@]3(C)CO)OC[C@H](O)[C@@H]2O)[C@H](O)[C@H](O)[C@H]1O
Activity [1]: Active

SMILES: C[C@H]1[C@H](C)CC[C@]2(C(=O)O[C@@H]3O[C@H](CO[C@@H]4O[C@H](CO)[C@@H](O[C@@H]5O[C@@H](C)[C@H](O)[C@@H](O)[C@H]5O)[C@H](O)[C@H]4O)[C@@H](O)[C@H](O)[C@H]3O)CC[C@]3(C)C(=CC[C@@H]4[C@@]5(C)C[C@@H](O)[C@H](O)[C@@](C)(CO)[C@@H]5CC[C@]43C)[C@H]12
Activity [1]: Active

SMILES: CC1(C)CC[C@]2(C(=O)O)CC[C@]3(C)C(=C2C1)CC[C@@H]1[C@@]2(C)CC[C@H](O[C@@H]4OC[C@H](O)[C@H](O)[C@H]4O[C@@H]4OC[C@@H](O)[C@H](O)[C@H]4O)C(C)(C)[C@@H]2CC[C@]13C
CLint scaled [2]: 3.25 mL/min/kg
half-life [3]: 2.25 h
half-life [4]: > 2 h
Tmax [5]: 4.8 min
AUC(0-inf) [6]: 2590 ng·h/mL
Cmax [7]: 8820 ng/mL
half-life [8]: 1.26 h
Tmax [9]: 0.75 h
bioavailability [10]: 1.13%
Cmax [11]: 54.2 ng/mL
CLint scaled [12]: 2.34 mL/min/kg
AUC(0-t) [13]: 145 ng·h/mL
AUC(0-inf) [14]: 151 ng·h/mL
half-life [15]: > 2 h
AUC(0-t) [16]: 2570 ng·h/mL

SMILES: C[C@H]1[C@H](C)CC[C@]2(C(=O)O)CC[C@]3(C)C(=CC[C@@H]4[C@@]5(C)C[C@@H](O)[C@H](O)C(C)(C)[C@@H]5CC[C@]43C)[C@H]12
Activity [1]: Active

SMILES: CC1(C)CC[C@]2(C(=O)O)CC[C@]3(C)C(=CC[C@@H]4[C@@]5(C)CC[C@H](O)C(C)(C)[C@@H]5CC[C@]43C)[C@@H]2C1
Activity [1]: Active

Further lines, with some results ahead:

Activity [1]: Active
SMILES: CC1(C)CC[C@]2(C(=O)O[C@@H]3O[C@H](CO[C@@H]4O[C@H](CO)[C@@H](O)[C@H](O)[C@H]4O)[C@@H](O)[C@H](O)[C@H]3O)CC[C@]3(C)C(=CC[C@@H]4[C@@]5(C)CC[C@H](O[C@@H]6OC[C@H](O)[C@H](O)[C@H]6O)[C@@](C)(CO)[C@@H]5CC[C@]43C)[C@@H]2C1

Activity [1]: Active
SMILES: C[C@H]1[C@H](C)CC[C@]2(C(=O)O)CC[C@]3(C)C(=CC[C@@H]4[C@@]5(C)CC[C@H](O)C(C)(C)[C@@H]5CC[C@]43C)[C@H]12

CLint scaled [2]: 38.6 mL/min/kg
half-life [3]: 1.74 h
half-life [4]: > 2 h
Tmax [5]: 4.8 min
AUC(0-inf) [6]: 3300 ng·h/mL
Cmax [7]: 3500 ng/mL
half-life [8]: 1.14 h
Tmax [9]: 2.67 h
bioavailability [10]: 18.6%
Cmax [11]: 728 ng/mL
AUC(0-t) [13]: 3000 ng·h/mL
AUC(0-inf) [14]: 3080 ng·h/mL
half-life [15]: 0.751 h
AUC(0-t) [16]: 3220 ng·h/mL
SMILES: CC1(C)CC[C@]2(C(=O)O[C@@H]3OC[C@@H](O)[C@H](O)[C@H]3O)CC[C@]3(C)C(=C2C1)CC[C@@H]1[C@@]2(C)CC[C@H](O[C@@H]4OC[C@H](O)[C@H](O)[C@H]4O)C(C)(C)[C@@H]2CC[C@]13C
Activity (THP-1 [17]): Active
Activity (THP-1 [18]): Non-Toxic
Activity (THP-1 [19]): Active

Activity [1]: Active
SMILES: CC1(C)CC[C@]2(C(=O)O)CC[C@]3(C)C(=CC[C@@H]4[C@@]5(C)CC[C@H](O[C@@H]6O[C@H](C(=O)O)[C@@H](O)[C@H](O)[C@H]6O)C(C)(C)[C@@H]5CC[C@]43C)[C@@H]2C1

Activity [1]: Active
SMILES: C[C@H]1[C@H](C)CC[C@]2(C(=O)O)CC[C@]3(C)C(=CC[C@@H]4[C@@]5(C)C[C@@H](O)[C@H](O)[C@@](C)(CO)[C@@H]5CC[C@]43C)[C@H]12

Activity [1]: Active
SMILES: CC1(C)CC[C@]2(C(=O)O)CC[C@]3(C)C(=CC[C@@H]4[C@@]5(C)CC[C@H](O)[C@@](C)(CO)[C@@H]5CC[C@]43C)[C@@H]2C1
